Source: patent US9758459B2, “Allosteric modulators of factor XIa as anticoagulant agents” (VIRGINIA COMMONWEALTH UNIVERSITY, priority 2012, dated 2017)

Biological target: T1, factor XIIa (Homo sapiens, UniProt P00748)
T1 construct: purchased Enzyme Research Laboratories (South Bend, Ind.)
T1 sequence (P00748 373-615 limits assumed): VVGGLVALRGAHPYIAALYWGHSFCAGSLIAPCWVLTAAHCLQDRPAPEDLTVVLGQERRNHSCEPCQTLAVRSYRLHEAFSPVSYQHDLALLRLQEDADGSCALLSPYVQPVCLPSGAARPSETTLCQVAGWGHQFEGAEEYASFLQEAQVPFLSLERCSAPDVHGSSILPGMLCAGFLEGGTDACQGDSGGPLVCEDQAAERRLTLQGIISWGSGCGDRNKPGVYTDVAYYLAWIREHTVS
Test: Factor XIIa chromogenic substrate hydrolysis assay
Format: biochemical

HS: 3.0 ± 1.8
IC50: 147 µM
ΔY: 55.7 ± 5.9
selectivity over factor XIIa (FXIa vs factor XIIa): 200 fold
Structure (SMILES): O=C(OC[C@H]1O[C@@H](OC(=O)c2cc(OS(=O)(=O)O)c(O)c(OS(=O)(=O)O)c2)[C@H](OC(=O)c2cc(OS(=O)(=O)O)c(O)c(OS(=O)(=O)O)c2)[C@@H](OC(=O)c2cc(OS(=O)(=O)O)c(O)c(OS(=O)(=O)O)c2)[C@@H]1OC(=O)c1cc(OS(=O)(=O)O)c(O)c(OS(=O)(=O)O)c1)c1cc(OS(=O)(=O)O)c(O)c(OS(=O)(=O)O)c1 [SPGG, Sulfated Pentagalloylglucoside]
